Type in all cases: cell-based
Test [1] has as its system penicillin-sensitive Streptococcus pneumoniae (PSSP). Description: In vitro antibacterial activity, agar dilution method, PSSP. The note with it: clinically isolated strains. From the text: (§1) Bacterial strains for test: All the bacterial strains are clinically isolated strains obtained from public sources. (1) Gram-positive bacteria: methicillin-sensitive Staphylococcus aureus (MSSA), methicillin-resistant Staphylococcus aureus (MRSA), methicillin-resistant Staphylococcus epidermidis (MRSE), methicillin-sensitive Staphylococcus epidermidis (MSSE), penicillin-sensitive Streptococcus pneumoniae (PSSP), and penicillin-resistant Streptococcus pneumoniae (PRSP); (2) Gram-negative bacteria: Escherichia coli (products from ESBLs), Klebsiella pneumonia, and Pseudomonas aeruginosa.
(§2) Drugs to be tested: Compounds 1 to 5, prepared as described above; Control drugs:
(§3) Meropenem (Meropenem for injection), Imipenem (Imipenem for injection), commercially available.
(§4) Experimental Method: the agar dilution method, by reference to Methodology of Pharmacological Experiment (X U Shuyun et al, published by the Peoples Medical Publishing House, 1st Edition, August, 1982; 3rd Edition, 5th printing, January 2002, p 1659-1660).
Background: In agar dilution the substance is mixed into plates at graded concentrations.

Test [2] concerns methicillin-sensitive Staphylococcus epidermidis (MSSE). Description: In vitro antibacterial activity, agar dilution method, MSSE.
Description: as §1, §2, §3, §4

Test [3] concerns methicillin-resistant Staphylococcus aureus (MRSA). In words: In vitro antibacterial activity, agar dilution method, MRSA. The note with it: clinically isolated strains.
Description: as §1, §2, §3, §4

For test [4], the system named is methicillin-resistant Staphylococcus epidermidis (MRSE). Description: In vitro antibacterial activity, agar dilution method, MRSE. Conditions: clinically isolated strains.
Description: as §1, §2, §3, §4

For test [5], the system named is proteus mirabilis. In words: In vitro antibacterial activity, agar dilution method, proteus mirabilis. Conditions: clinically isolated strains.
Test [6] concerns Pseudomonas aeruginosa. In words: In vitro antibacterial activity, agar dilution method, pseudomonas aeruginosa. The note with it: clinically isolated strains.
Description: as §1, §2, §3, §4

Test [7] relates to penicillin-resistant Streptococcus pneumoniae (PRSP). In words: In vitro antibacterial activity, agar dilution method, PRSP. The note with it: clinically isolated strains.
Description: as §1, §2, §3, §4

Test [8] has as its system Klebsiella pneumonia. Description: In vitro antibacterial activity, agar dilution method, klebsiella pneumonia. The note with it: Klebsiella pneumoniae, clinically isolated strains.
Description: as §1, §2, §3, §4

The test system of test [9] is Escherichia coli (products from ESBLs). In words: In vitro antibacterial activity, agar dilution method, ESBLs. Conditions: clinically isolated strains.
Description: as §1, §2, §3, §4

The test system of test [10] is methicillin-sensitive Staphylococcus aureus (MSSA). In words: In vitro antibacterial activity, agar dilution method, MSSA. Conditions: clinically isolated strains.
Description: as §1, §2, §3, §4

The mark [11] stands for this setting: MSSE, clinically isolated strains, agar dilution, read-out: MIC90.

In brackets after ≈: the same amount, converted by molar mass. Read-outs that look alike come from different tables or passages of the source.

In the case of `C[C@@H](O)[C@H]1C(=O)N2C(C(=O)O)=C(S[C@@H]3CN[C@H](C(=O)N(C)C)C3)[C@H](C)[C@H]12` [Meropenem, reference compound], the MIC90 (as a rule, the lowest concentration that inhibits either 90% of growth or 90% of the strains tested, depending on the study) in test [1] worked out at 0.031 µg/mL (≈ 0.0808 µM); in [2], 0.125 µg/mL (≈ 0.326 µM); in test [3] it was 64 µg/mL (≈ 167 µM); in test [4], 64 µg/mL (≈ 167 µM); in [5] it was 0.25 µg/mL (≈ 0.652 µM); in [6] it was 4 µg/mL (≈ 10.4 µM). In addition, the MIC90 in test [7] was found to be 1 µg/mL (≈ 2.61 µM); in test [8], 0.063 µg/mL (≈ 0.164 µM); in test [9] it was 0.031 µg/mL (≈ 0.0808 µM); in [10], 0.25 µg/mL (≈ 0.652 µM).
As to `C[C@@H](O)[C@H]1C(=O)N2C(C(=O)O)=C(SCCN=CN)C[C@H]12` [Imipenem, reference compound], the MIC90 in [1] amounted to 0.016 µg/mL (≈ 0.0534 µM); in test [2] (setting [11]), 0.031 µg/mL (≈ 0.104 µM); in [3] it was 32 µg/mL (≈ 107 µM); in test [4], 64 µg/mL (≈ 214 µM); in test [5], 8 µg/mL (≈ 26.7 µM); in test [6], 8 µg/mL (≈ 26.7 µM). The MIC90 came to 0.5 µg/mL (≈ 1.67 µM) in test [7], 0.5 µg/mL (≈ 1.67 µM) in [8], 0.25 µg/mL (≈ 0.835 µM) in [9] and 0.063 µg/mL (≈ 0.21 µM) in [10].
Turning to `C[C@@H](O)[C@H]1C(=O)N2C(C(=O)O)=C(S[C@@H]3CN[C@H](C(=O)NCc4ccc(OC(F)(F)F)cc4)C3)[C@H](C)[C@H]12` [Compound 4, (4R,5S,6S)-6-((R)-1-hydroxyethyl)-4-methyl-7-oxo-3-((3S,5S)-5-(4-(trifluoromethoxy)benzylcarbamoyl)pyrrolidin-3-ylthio)-1-azabicyclo[3.2.0]hept-2-ene-2-carboxylic acid], the MIC90 in test [1] was 0.016 µg/mL (≈ 0.0302 µM); in [2] (setting [11]), 0.031 µg/mL (≈ 0.0585 µM); in test [3], 16 µg/mL (≈ 30.2 µM); in test [4] it was 16 µg/mL (≈ 30.2 µM); in test [5] it was 0.125 µg/mL (≈ 0.236 µM); in test [6] it was 4 µg/mL (≈ 7.55 µM). Further, the MIC90 in test [7] was determined as 0.125 µg/mL (≈ 0.236 µM); in test [8], 0.031 µg/mL (≈ 0.0585 µM); in test [9], 0.016 µg/mL (≈ 0.0302 µM); in test [10], 0.031 µg/mL (≈ 0.0585 µM).
As for `C[C@@H](O)[C@H]1C(=O)N2C(C(=O)O)=C(S[C@@H]3CN[C@H](C(=O)NCc4ccc(S(N)(=O)=O)cc4)C3)[C@H](C)[C@H]12` [Compound 2], the MIC90 came to 0.016 µg/mL (≈ 0.0305 µM) in test [1]; 0.063 µg/mL (≈ 0.12 µM) in test [2] (setting [11]); 16 µg/mL (≈ 30.5 µM) in [3]; 32 µg/mL (≈ 61 µM) in test [4]; 0.125 µg/mL (≈ 0.238 µM) in [5]; 4 µg/mL (≈ 7.62 µM) in test [6]. Also, the MIC90 in [7] came to 0.125 µg/mL (≈ 0.238 µM); in test [8] it was 0.063 µg/mL (≈ 0.12 µM); in test [9], 0.063 µg/mL (≈ 0.12 µM).
Regarding `COc1ccc(CNC(=O)[C@@H]2C[C@H](SC3=C(C(=O)O)N4C(=O)[C@H]([C@@H](C)O)[C@H]4[C@H]3C)CN2)cc1` [Compound 1, (4R,5S,6S)-6-((R)-1-hydroxyethyl)-3-((3S,5S)-5-(4-methoxybenzylcarbamoyl)pyrrolidin-3-ylthio)-4-methyl-7-oxo-1-azabicyclo[3.2.0]hept-2-ene-2-carboxylic acid], the MIC90 is 0.016 µg/mL (≈ 0.0336 µM) in test [1]; 0.031 µg/mL (≈ 0.0652 µM) in test [2] (setting [11]); 16 µg/mL (≈ 33.6 µM) in test [3]; 32 µg/mL (≈ 67.3 µM) in test [4]; 0.125 µg/mL (≈ 0.263 µM) in test [5]; 4 µg/mL (≈ 8.41 µM) in test [6]. Further, the MIC90 in test [7] amounted to 0.25 µg/mL (≈ 0.526 µM); in test [8], 0.031 µg/mL (≈ 0.0652 µM); in test [9], 0.031 µg/mL (≈ 0.0652 µM); in test [10], 0.063 µg/mL (≈ 0.132 µM).
As to `C[C@@H](O)[C@H]1C(=O)N2C(C(=O)O)=C(S[C@@H]3CN[C@H](C(=O)NCc4cccc(CCC(=O)O)c4)C3)[C@H](C)[C@H]12` [Compound 3], the MIC90 in [1] was determined as 0.031 µg/mL (≈ 0.0599 µM); in test [2] (setting [11]), 0.031 µg/mL (≈ 0.0599 µM); in test [3], 32 µg/mL (≈ 61.8 µM); in test [4], 32 µg/mL (≈ 61.8 µM); in test [5] it was 0.25 µg/mL (≈ 0.483 µM); in [6], 2 µg/mL (≈ 3.86 µM). Also, the MIC90 came to 0.25 µg/mL (≈ 0.483 µM) in test [7], 0.031 µg/mL (≈ 0.0599 µM) in test [8], 0.031 µg/mL (≈ 0.0599 µM) in test [9] and 0.063 µg/mL (≈ 0.122 µM) in [10].
In the case of `C[C@@H](O)[C@H]1C(=O)N2C(C(=O)O)=C(S[C@@H]3CN[C@H](C(=O)NCc4ccc(OC(F)F)cc4)C3)[C@H](C)[C@H]12` [Compound 5], the MIC90 is 0.016 µg/mL (≈ 0.0313 µM) in [1]; 0.063 µg/mL (≈ 0.123 µM) in test [2] (setting [11]); 16 µg/mL (≈ 31.3 µM) in test [3]; 16 µg/mL (≈ 31.3 µM) in test [4]; 0.125 µg/mL (≈ 0.244 µM) in [5]; 2 µg/mL (≈ 3.91 µM) in test [6]. Moreover, the MIC90 in test [7] is 0.25 µg/mL (≈ 0.489 µM); in [8] it was 0.063 µg/mL (≈ 0.123 µM); in [9] it was 0.016 µg/mL (≈ 0.0313 µM); in test [10], 0.063 µg/mL (≈ 0.123 µM).
